Measured values as given in US9995734B2, “Human T cell line assay for evaluating the immunologic identity of glatiramer acetate preparations” (Mylan Inc., priority 2013, dated 2018).
Where “and” joins values, the source holds several entries; their conditions need not be identical. Equal values may be shown once.

Key:
Donor 1 COP T-Cell Lines = test: ATP proliferation assay (CellTiter Glo), Donor 1 COP T-cell lines, incl. reactivity to non-canonical GA peptides; type: cell-based, human; conditions: for luminescent ATP proliferation assay, mean: no antigen 5673 (Table 9)
Outline: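 Donor 1 COP-derived T-cell lines restimulated with GA, COP, GMA or non-canonical GA peptides (1–30 µg/mL) alongside mitomycin C-treated autologous PBMC or B-LCL APC. Proliferation read as ATP content by CellTiter Glo luminescence, 48 h after stimulation in later screens (3 days in initial split-well screens). Controls: no antigen (GMA series), MBP (COP series).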

Donor 3 GMA T-Cell Lines = test: ATP proliferation assay (CellTiter Glo), Donor 3 GMA T-cell lines, incl. reactivity to non-canonical GA peptides; type: cell-based, human; conditions: for proliferation response to non-canonical GA peptides: 0, 1, 3, 10, 30 μg/mL; for Non-Canonical Peptide Non-Reactivity: proliferation <2 times no antigen control; for Non-Canonical Peptide Reactivity: at least one proliferation value >=2 times no antigen control

## poly (Glu-Lys-Tyr; 6:3:1) [GLT 631]
Donor 1 COP T-Cell Lines; 222-1H12, Day 56, 0, 3, 10, 30 μg/mL
  proliferation response to non-canonical GA peptides: responded
Donor 1 COP T-Cell Lines; 222-2F12, Day 56, 3 μg/mL
  luminescent ATP proliferation assay, mean: 5277
Donor 1 COP T-Cell Lines; 222-2F12, Day 56, 10 μg/mL
  luminescent ATP proliferation assay, mean: 4934
Donor 1 COP T-Cell Lines; 222-2F12, Day 56, 30 μg/mL
  luminescent ATP proliferation assay, mean: 5217
Donor 1 COP T-Cell Lines; 222-2F12, proliferation <2 times no antigen control
  Non-Canonical Peptide Non-Reactivity: GLT 631
Donor 1 COP T-Cell Lines; Donor 1 COP lines, at least a 50% increase in proliferation relative to a control after stimulation with the non-canonical GA peptide
  Reactive T-Cell Line: 222-1H12 (Donor 1)
Donor 1 COP T-Cell Lines; Donor 1 COP lines, stimulation with the non-canonical GA peptide
  Nonreactive T-Cell Line: 222-2F12 (Donor 1)
Donor 3 GMA T-Cell Lines; 165-B5G and 165-E7G, Day 81
  proliferation response to non-canonical GA peptides: responded well
Donor 3 GMA T-Cell Lines; 165-B5G
  Non-Canonical Peptide Non-Reactivity: GLT 631
Donor 3 GMA T-Cell Lines; 165-C5G
  Non-Canonical Peptide Non-Reactivity: GLT 631
Donor 3 GMA T-Cell Lines; 165-E7G
  Non-Canonical Peptide Reactivity: GLT 631
Donor 3 GMA T-Cell Lines; 165-E9G
  Non-Canonical Peptide Non-Reactivity: GLT 631
Donor 3 GMA T-Cell Lines; 165-F5G
  Non-Canonical Peptide Non-Reactivity: GLT 631
Donor 3 GMA T-Cell Lines; 165-F10G
  Non-Canonical Peptide Non-Reactivity: GLT 631
Donor 3 GMA T-Cell Lines; 165-H11G, Day 50
  proliferation response to non-canonical GA peptides: responded
Donor 3 GMA T-Cell Lines; 165-H11G
  Non-Canonical Peptide Reactivity: GLT 631
Donor 3 GMA T-Cell Lines; Donor 3 GMA lines, at least a 50% increase in proliferation relative to a control after stimulation with the non-canonical GA peptide
  Reactive T-Cell Line: 165-H11G (Donor 3)
Donor 3 GMA T-Cell Lines; Donor 3 GMA lines, stimulation with the non-canonical GA peptide
  Nonreactive T-Cell Line: 165-B5G (Donor 3) and 165-C5G (Donor 3) and 165-C8G (Donor 3) and 165-E7G (Donor 3) and 165-E9G (Donor 3) and 165-F5G (Donor 3) and 165-F10G (Donor 3)
Donor 3 GMA T-Cell Lines; T-cell line 165-05G, 1 μg/mL antigen, Day 50 of culturing, No Antigen Value 2149
  Proliferation (luminescent ATP assay), Mean: 1871 RLU
Donor 3 GMA T-Cell Lines; T-cell line 165-05G, 3 μg/mL antigen, Day 50 of culturing, No Antigen Value 2149
  Proliferation (luminescent ATP assay), Mean: 2268 RLU
Donor 3 GMA T-Cell Lines; T-cell line 165-05G, 10 μg/mL antigen, Day 50 of culturing, No Antigen Value 2149
  Proliferation (luminescent ATP assay), Mean: 2256 RLU
Donor 3 GMA T-Cell Lines; T-cell line 165-05G, 30 μg/mL antigen, Day 50 of culturing, No Antigen Value 2149
  Proliferation (luminescent ATP assay), Mean: 2137 RLU
Donor 3 GMA T-Cell Lines; T-cell line 165-B5G, 1 μg/mL antigen, Day 81 of culturing, No Antigen Value 2432
  Proliferation (luminescent ATP assay), Mean: 4288 RLU
Donor 3 GMA T-Cell Lines; T-cell line 165-B5G, 1.25 μg/mL antigen, Day 55 of culturing, No Antigen Value 846
  Proliferation (luminescent ATP assay), Mean: 1054 RLU
Donor 3 GMA T-Cell Lines; T-cell line 165-B5G, 2.5 μg/mL antigen, Day 55 of culturing, No Antigen Value 846
  Proliferation (luminescent ATP assay), Mean: 1159 RLU
Donor 3 GMA T-Cell Lines; T-cell line 165-B5G, 3 μg/mL antigen, Day 81 of culturing, No Antigen Value 2432
  Proliferation (luminescent ATP assay), Mean: 5153 RLU
Donor 3 GMA T-Cell Lines; T-cell line 165-B5G, 5 μg/mL antigen, Day 55 of culturing, No Antigen Value 846
  Proliferation (luminescent ATP assay), Mean: 1687 RLU
Donor 3 GMA T-Cell Lines; T-cell line 165-B5G, 10 μg/mL antigen, Day 55 of culturing, No Antigen Value 846
  Proliferation (luminescent ATP assay), Mean: 3589 RLU
Donor 3 GMA T-Cell Lines; T-cell line 165-B5G, 10 μg/mL antigen, Day 81 of culturing, No Antigen Value 2432
  Proliferation (luminescent ATP assay), Mean: 11847 RLU
Donor 3 GMA T-Cell Lines; T-cell line 165-B5G, 30 μg/mL antigen, Day 81 of culturing, No Antigen Value 2432
  Proliferation (luminescent ATP assay), Mean: 11416 RLU
Donor 3 GMA T-Cell Lines; T-cell line 165-C5G, 1.25 μg/mL antigen, autologous B-LCL
  Proliferation (luminescent ATP assay), Mean: 485 RLU
Donor 3 GMA T-Cell Lines; T-cell line 165-C5G, 2.5 μg/mL antigen, autologous B-LCL
  Proliferation (luminescent ATP assay), Mean: 552 RLU
Donor 3 GMA T-Cell Lines; T-cell line 165-C5G, 5 μg/mL antigen, autologous B-LCL
  Proliferation (luminescent ATP assay), Mean: 585 RLU
Donor 3 GMA T-Cell Lines; T-cell line 165-C5G, 10 μg/mL antigen, autologous B-LCL
  Proliferation (luminescent ATP assay), Mean: 579 RLU
Donor 3 GMA T-Cell Lines; T-cell line 165-E7G, 1 μg/mL antigen, Day 81 of culturing, No Antigen Value 2145
  Proliferation (luminescent ATP assay), Mean: 3992 RLU
Donor 3 GMA T-Cell Lines; T-cell line 165-E7G, 1.25 μg/mL antigen, autologous B-LCL, Day 55
  Proliferation (luminescent ATP assay), Mean: 2983 RLU
Donor 3 GMA T-Cell Lines; T-cell line 165-E7G, 2.5 μg/mL antigen, autologous B-LCL, Day 55
  Proliferation (luminescent ATP assay), Mean: 3783 RLU
Donor 3 GMA T-Cell Lines; T-cell line 165-E7G, 3 μg/mL antigen, Day 81 of culturing, No Antigen Value 2145
  Proliferation (luminescent ATP assay), Mean: 5133 RLU
Donor 3 GMA T-Cell Lines; T-cell line 165-E7G, 5 μg/mL antigen, autologous B-LCL, Day 55
  Proliferation (luminescent ATP assay), Mean: 5821 RLU
Donor 3 GMA T-Cell Lines; T-cell line 165-E7G, 10 μg/mL antigen, Day 81 of culturing, No Antigen Value 2145
  Proliferation (luminescent ATP assay), Mean: 12006 RLU
Donor 3 GMA T-Cell Lines; T-cell line 165-E7G, 10 μg/mL antigen, autologous B-LCL, Day 55
  Proliferation (luminescent ATP assay), Mean: 5710 RLU
Donor 3 GMA T-Cell Lines; T-cell line 165-E7G, 30 μg/mL antigen, Day 81 of culturing, No Antigen Value 2145
  Proliferation (luminescent ATP assay), Mean: 12836 RLU
Donor 3 GMA T-Cell Lines; T-cell line 165-E9G, 1 μg/mL antigen, Day 50 of culturing, No Antigen Value 1742
  Proliferation (luminescent ATP assay), Mean: 1630 RLU
Donor 3 GMA T-Cell Lines; T-cell line 165-E9G, 1.25 μg/mL antigen, autologous B-LCL
  Proliferation (luminescent ATP assay), Mean: 142 RLU
Donor 3 GMA T-Cell Lines; T-cell line 165-E9G, 2.5 μg/mL antigen, autologous B-LCL
  Proliferation (luminescent ATP assay), Mean: 195 RLU
Donor 3 GMA T-Cell Lines; T-cell line 165-E9G, 3 μg/mL antigen, Day 50 of culturing, No Antigen Value 1742
  Proliferation (luminescent ATP assay), Mean: 1600 RLU
Donor 3 GMA T-Cell Lines; T-cell line 165-E9G, 5 μg/mL antigen, autologous B-LCL
  Proliferation (luminescent ATP assay), Mean: 233 RLU
Donor 3 GMA T-Cell Lines; T-cell line 165-E9G, 10 μg/mL antigen, autologous B-LCL
  Proliferation (luminescent ATP assay), Mean: 312 RLU
Donor 3 GMA T-Cell Lines; T-cell line 165-E9G, 30 μg/mL antigen, Day 50 of culturing, No Antigen Value 1742
  Proliferation (luminescent ATP assay), Mean: 2152 RLU
Donor 3 GMA T-Cell Lines; T-cell line 165-E9G, 10 μpg/mL antigen, Day 50 of culturing, No Antigen Value 1742
  Proliferation (luminescent ATP assay), Mean: 2341 RLU
Donor 3 GMA T-Cell Lines; T-cell line 165-F5G, 1.25 μg/mL antigen, autologous B-LCL
  Proliferation (luminescent ATP assay), Mean: 131 RLU
Donor 3 GMA T-Cell Lines; T-cell line 165-F5G, 2.5 μg/mL antigen, autologous B-LCL
  Proliferation (luminescent ATP assay), Mean: 143 RLU
Donor 3 GMA T-Cell Lines; T-cell line 165-F5G, 5 μg/mL antigen, autologous B-LCL
  Proliferation (luminescent ATP assay), Mean: 176 RLU
Donor 3 GMA T-Cell Lines; T-cell line 165-F5G, 10 μg/mL antigen, autologous B-LCL
  Proliferation (luminescent ATP assay), Mean: 110 RLU
Donor 3 GMA T-Cell Lines; T-cell line 165-F10G, 1 μg/mL antigen, Day 50 of culturing, No Antigen Value 3752
  Proliferation (luminescent ATP assay), Mean: 3363 RLU
Donor 3 GMA T-Cell Lines; T-cell line 165-F10G, 1.25 μg/mL antigen, autologous B-LCL
  Proliferation (luminescent ATP assay), Mean: 1012 RLU
Donor 3 GMA T-Cell Lines; T-cell line 165-F10G, 2.5 μg/mL antigen, autologous B-LCL
  Proliferation (luminescent ATP assay), Mean: 1389 RLU
Donor 3 GMA T-Cell Lines; T-cell line 165-F10G, 3 μg/mL antigen, Day 50 of culturing, No Antigen Value 3752
  Proliferation (luminescent ATP assay), Mean: 3061 RLU
Donor 3 GMA T-Cell Lines; T-cell line 165-F10G, 5 μg/mL antigen, autologous B-LCL
  Proliferation (luminescent ATP assay), Mean: 2620 RLU
Donor 3 GMA T-Cell Lines; T-cell line 165-F10G, 10 μg/mL antigen, Day 50 of culturing, No Antigen Value 3752
  Proliferation (luminescent ATP assay), Mean: 4823 RLU
Donor 3 GMA T-Cell Lines; T-cell line 165-F10G, 10 μg/mL antigen, autologous B-LCL
  Proliferation (luminescent ATP assay), Mean: 2505 RLU
Donor 3 GMA T-Cell Lines; T-cell line 165-F10G, 30 μg/mL antigen, Day 50 of culturing, No Antigen Value 3752
  Proliferation (luminescent ATP assay), Mean: 4568 RLU
Donor 3 GMA T-Cell Lines; T-cell line 165-H11G, 1 μg/mL antigen, Day 50 of culturing, No Antigen Value 1485
  Proliferation (luminescent ATP assay), Mean: 2763 RLU
Donor 3 GMA T-Cell Lines; T-cell line 165-H11G, 1.25 μg/mL antigen, autologous B-LCL
  Proliferation (luminescent ATP assay), Mean: 29 RLU
Donor 3 GMA T-Cell Lines; T-cell line 165-H11G, 2.5 μg/mL antigen, autologous B-LCL
  Proliferation (luminescent ATP assay), Mean: 344 RLU
Donor 3 GMA T-Cell Lines; T-cell line 165-H11G, 3 μg/mL antigen, Day 50 of culturing, No Antigen Value 1485
  Proliferation (luminescent ATP assay), Mean: 2875 RLU
Donor 3 GMA T-Cell Lines; T-cell line 165-H11G, 5 μg/mL antigen, autologous B-LCL
  Proliferation (luminescent ATP assay), Mean: 448 RLU
Donor 3 GMA T-Cell Lines; T-cell line 165-H11G, 10 μg/mL antigen, Day 50 of culturing, No Antigen Value 1485
  Proliferation (luminescent ATP assay), Mean: 3028 RLU
Donor 3 GMA T-Cell Lines; T-cell line 165-H11G, 10 μg/mL antigen, autologous B-LCL
  Proliferation (luminescent ATP assay), Mean: 435 RLU
Donor 3 GMA T-Cell Lines; T-cell line 165-H11G, 30 μg/mL antigen, Day 50 of culturing, No Antigen Value 1485
  Proliferation (luminescent ATP assay), Mean: 3093 RLU
